Laboratory results published in patent publication US11351157B2, “Treatment of immunological disease using berberine nanoparticles” (Icahn School of Medicine at Mount Sinai, priority 2016, dated 2022).
Like-named read-outs stand apart in the source and are kept apart here.

B1: quilizumab: mIgE (membrane-bound IgE) targeting antibody studied in clinical trials (antibody, chains of the INN, looked up, V domains shown)
VH: EVQLVESGGGLVQPGGSLRLSCAASGFTFSDYGIAWVRQAPGKGLEWVAFISDLAYTIYYADTVTGRFTISRDNSKNTLYLQMNSLRAEDTAVYYCARDNWDAMDYWGQGTLVTVSS
VL: DIQMTQSPSSLSASVGDRVTITCRSSQSLVHNNANTYLHWYQQKPGKAPKLLIYKVSNRFSGVPSRFSGSGSGTDFTLTISSLQPEDFATYYCSQNTLVPWTFGQGTKVEIK

What was measured:
[1] = tested on: peripheral blood mononuclear cells (PBMCs); settings: cited from earlier work; for IgE production by PBMCs: PBMCs from patients with food allergy
P-glycoprotein = settings: mediated by P-glycoprotein; cited from earlier work
human B cells = settings: cited from earlier work; for IgE production by human B cells: human B cells / U266 cells
peanut-specific IgE = assay: Peanut-specific IgE in serum of peanut-sensitized mice (ELISA); format: in vivo, C3H/HeJ mice; settings: two oral courses, vs Sham
From the text: Six-week-old female C3H/HeJ mice purchased from the Jackson Laboratory (Bar Harbor, Me.) were maintained in pathogen-free facilities at the Mount Sinai vivarium on peanut-free chow according to standard guidelines for the care and use of animals. Institute of Laboratory Animal Resources Commission of Life Sciences NRC. Guide for the Care and Use of Laboratory Animals: National Academic Press, 1996. […] Some mice were sensitized to egg white (EW) using a similar protocol. Subsequently, daily oral treatment with BBR-nanoparticles was administered in 4-week and 2-week phases with an interval of 2 weeks at times indicated. Mice were periodically challenged with systemic and oral challenges at approximately 6 week intervals, as indicated. In some experiments mice were given intraperitoneal injections of 100 μg of anti-CD8 or anti-IFNγ antibodies, one day prior and then twice weekly during treatment period. Microtitre plates were coated with defatted protein extracts of peanut or egg white (sample wells) and rat anti-mouse IgE (reference wells) and held overnight at 4° C. After washing three times, plates were blocked for 2 hours at room temperature with 2% BSA-PBS. After three washes plates were incubated with diluted serum samples overnight at 4° C. […] Total IgA, peanut specific IgG1 and IgG2a levels were measured as described in a previous publication. […]

[2] = in vivo; cited from earlier work
[3] = target: T1, mIgE (membrane-bound IgE) (Homo sapiens, UniProt P01854); settings: clinical trials; cited from earlier work
T1 construct: host or cells: endogenous mIgE on IgE-lineage B cells of human trial subjects
T1 sequence (P01854 whole entry): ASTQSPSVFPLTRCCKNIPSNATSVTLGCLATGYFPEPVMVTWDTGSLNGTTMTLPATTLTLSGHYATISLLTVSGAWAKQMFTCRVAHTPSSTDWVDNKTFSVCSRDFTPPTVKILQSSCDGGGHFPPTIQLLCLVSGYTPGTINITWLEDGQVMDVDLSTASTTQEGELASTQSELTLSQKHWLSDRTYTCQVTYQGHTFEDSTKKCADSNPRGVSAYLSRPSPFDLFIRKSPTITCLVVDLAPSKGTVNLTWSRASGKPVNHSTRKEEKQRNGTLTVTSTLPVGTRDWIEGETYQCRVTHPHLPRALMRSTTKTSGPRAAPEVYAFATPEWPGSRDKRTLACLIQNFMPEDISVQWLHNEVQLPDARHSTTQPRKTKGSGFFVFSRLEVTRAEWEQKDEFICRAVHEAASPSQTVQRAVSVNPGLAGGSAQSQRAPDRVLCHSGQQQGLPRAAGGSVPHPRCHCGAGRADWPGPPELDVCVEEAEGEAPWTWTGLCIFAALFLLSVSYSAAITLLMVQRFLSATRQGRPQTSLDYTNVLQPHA
T1 sequence (P11912 33-226 partner): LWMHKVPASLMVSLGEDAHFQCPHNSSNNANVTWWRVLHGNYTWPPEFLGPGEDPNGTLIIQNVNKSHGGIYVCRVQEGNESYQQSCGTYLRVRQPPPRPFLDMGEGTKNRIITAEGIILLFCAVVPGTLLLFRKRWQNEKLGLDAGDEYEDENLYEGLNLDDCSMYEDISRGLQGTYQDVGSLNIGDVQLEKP
T1 sequence (P40259 29-229 partner): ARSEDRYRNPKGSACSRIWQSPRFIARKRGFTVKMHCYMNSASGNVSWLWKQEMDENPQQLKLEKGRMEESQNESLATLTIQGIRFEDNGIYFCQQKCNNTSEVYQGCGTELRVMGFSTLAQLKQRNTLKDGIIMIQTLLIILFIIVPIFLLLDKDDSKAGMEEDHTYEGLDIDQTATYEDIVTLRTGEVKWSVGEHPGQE

Molecule | IgE production by PBMCs [1] | IgE production by PBMCs ([1]; listed as Berberine) | Cytotoxicity of inhibition in PBMCs [1] | Rate of efflux from intestinal epithelial cells (P-glycoprotein) | IC50 of IgE production (human B cells) [µg/mL] | IgE production by human B cells (human B cells) | IgE production by human B cells (human B cells; listed as Berberine) | Peanut-specific IgE (peanut-specific IgE) | Berberine taken up by the gastrointestinal tract [2] | Bioavailability [2] | Clinical benefit in early human studies [3] | IgE reduction in early human studies [3]
COc1ccc2cc3[n+](cc2c1OC)CCc1cc2c(cc1-3)OCO2 [berberine, Berberine] | significant reduction | significantly reduced | non-cytotoxic | up to 95% | 0.1962 | significant reduction | significantly reduced | not | less than 5% | less than 1% | – | –
B1 | – | – | – | – | – | – | – | – | – | – | without any significant clinical benefit | only moderate IgE reduction
